The text below walks through data of ChEMBL document CHEMBL3352610, “Discovery of potent and selective GIRK1/2 modulators via 'molecular switches' within a series of 1-(3-cyclopropyl-1-phenyl-1H-pyrazol-5-yl)ureas” (Bioorg Med Chem Lett, 2014).

SMILES strings stand for the structures. Activity calls are given as the source filed them. The rule behind the calls is not given here.

For one data set, the target named is T1, Kir3.1/Kir3.2 (Homo sapiens, UniProt P48051+P48549).
T1 sequence (P48549 whole entry): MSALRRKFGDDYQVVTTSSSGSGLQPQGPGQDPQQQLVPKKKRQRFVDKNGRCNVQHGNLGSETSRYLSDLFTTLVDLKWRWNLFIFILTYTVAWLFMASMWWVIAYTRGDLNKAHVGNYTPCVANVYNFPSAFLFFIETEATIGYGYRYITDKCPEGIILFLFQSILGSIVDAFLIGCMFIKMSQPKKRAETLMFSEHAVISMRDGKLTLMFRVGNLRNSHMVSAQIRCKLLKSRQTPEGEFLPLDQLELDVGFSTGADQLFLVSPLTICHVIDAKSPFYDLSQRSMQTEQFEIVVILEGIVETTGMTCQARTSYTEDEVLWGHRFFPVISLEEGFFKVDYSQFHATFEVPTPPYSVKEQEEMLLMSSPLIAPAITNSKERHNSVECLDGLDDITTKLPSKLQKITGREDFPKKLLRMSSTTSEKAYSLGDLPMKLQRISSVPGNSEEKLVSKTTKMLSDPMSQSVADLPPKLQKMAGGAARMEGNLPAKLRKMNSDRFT
T1 sequence (P48051 whole entry): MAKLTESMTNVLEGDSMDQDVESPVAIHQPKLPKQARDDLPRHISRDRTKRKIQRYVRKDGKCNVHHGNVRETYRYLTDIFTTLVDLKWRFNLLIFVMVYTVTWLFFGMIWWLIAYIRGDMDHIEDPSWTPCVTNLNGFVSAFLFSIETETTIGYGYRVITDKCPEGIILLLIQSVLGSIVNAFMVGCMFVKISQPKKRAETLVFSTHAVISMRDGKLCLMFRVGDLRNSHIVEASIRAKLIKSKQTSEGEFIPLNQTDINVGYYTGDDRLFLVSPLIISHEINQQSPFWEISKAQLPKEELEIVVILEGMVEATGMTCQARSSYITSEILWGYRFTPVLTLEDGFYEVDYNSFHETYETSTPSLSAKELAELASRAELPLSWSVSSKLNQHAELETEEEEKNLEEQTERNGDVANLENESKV
Put plainly: Activation of GIRK1/2 (unknown origin) by thallium-flux based assay. The class given is protein-complex assay.

The target in data set [1] is Kir3.1/Kir3.2 (Homo sapiens) (UniProt P48549+P48051). Kind of data set: Activation of GIRK1/2 (unknown origin) by thallium-flux based assay relative to ML297. The class given is protein-complex assay.
In a further data set the target is T2, Kir3.1/Kir3.4 (Homo sapiens, UniProt P48544+P48549).
T2 sequence (P48549 whole entry): T1 sequence (P48549 whole entry)
T2 sequence (P48544 whole entry): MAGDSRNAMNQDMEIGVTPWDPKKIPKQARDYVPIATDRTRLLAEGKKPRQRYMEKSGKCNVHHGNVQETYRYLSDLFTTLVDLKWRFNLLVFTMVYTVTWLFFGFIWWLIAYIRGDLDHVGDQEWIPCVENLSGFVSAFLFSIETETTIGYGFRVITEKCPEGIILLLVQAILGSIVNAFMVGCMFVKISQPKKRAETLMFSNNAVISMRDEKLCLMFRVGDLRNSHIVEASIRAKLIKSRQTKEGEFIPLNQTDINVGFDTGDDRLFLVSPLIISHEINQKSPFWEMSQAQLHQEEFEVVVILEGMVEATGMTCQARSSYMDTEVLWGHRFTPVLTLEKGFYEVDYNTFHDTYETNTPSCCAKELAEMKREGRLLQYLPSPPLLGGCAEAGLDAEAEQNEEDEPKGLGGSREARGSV
Put plainly: Activation of GIRK1/4 (unknown origin) by thallium-flux based assay. In kind it is protein-complex assay.

In data set [2] the target is Kir3.1/Kir3.4 (Homo sapiens) (UniProt P48549+P48544). Put plainly: Activation of GIRK1/4 (unknown origin) by thallium-flux based assay relative to ML297. The class given is protein-complex assay.
Data set [3] can be described thus: Stability in rat microsomes assessed as compound remaining measured after 90 mins. In kind it is ADME, Microsome. The conditions noted are these: read-out: Stability.
Data set [4] addresses Kir3.2/Kir3.3 (Homo sapiens) (UniProt P48051+Q92806). Kind of data set: Modulation of GIRK2/3 (unknown origin) by thallium-flux based assay. The class given is protein-complex assay.

Usually EC50 stands for the midpoint of the concentration-response curve. `CC1CC1c1cc(NC(=O)Nc2ccc(C(F)(F)F)cc2)n(CC(F)(F)F)n1` (stereo unspecified): the concentration giving a half-maximal response (EC50) on Kir3.1/Kir3.2 came to 0.31 µM; at Kir3.1/Kir3.4, 2 µM. Further, the values for the Efficacy in data set [1] and in data set [2] were 70% and 100%, respectively.
The like results for `CC1CC1c1cc(NC(=O)Nc2ccc(Cl)cc2)n(CC(F)(F)F)n1` (stereo unspecified) were, in that order, 0.15 µM, 1.8 µM, 66% and 100%.
As to `CC1CC1c1cc(NC(=O)Nc2cccc(F)c2)n(CC(F)(F)F)n1` (stereo unspecified), the EC50 was 0.31 µM at Kir3.1/Kir3.2 and 1 µM on Kir3.1/Kir3.4. In addition, the Efficacy in data set [1] came out at 101%; in data set [2] it was 100%.
As for `Cc1cc(NC(=O)Nc2cc(C3CC3C)nn2CC(F)(F)F)ccc1F` (stereo unspecified), the values for the EC50 on Kir3.1/Kir3.2 and at Kir3.1/Kir3.4 were 0.7 µM and 1.2 µM, respectively. The Efficacy in data set [1] was determined as 81%; in data set [2] it was 35%.
The like results for `CC1CC1c1cc(NC(=O)Nc2ccc(F)c(F)c2)n(CC(F)(F)F)n1` (stereo unspecified) were, in that order, 4.9 µM, 4.9 µM, 100% and 112%.
Consider `Cc1ccc(NC(=O)Nc2cc(C3CC3C)nn2CC(F)(F)F)cc1` (stereo unspecified), for which the EC50 was determined as 0.27 µM on Kir3.1/Kir3.2 and 2.3 µM on Kir3.1/Kir3.4. The Efficacy is 67% in data set [1] and 100% in data set [2].
Turning to `Cc1cc(NC(=O)Nc2ccc(F)c(F)c2)n(-c2ccccc2)n1`, the remaining at […] in data set [3] worked out at 45%. Moreover, in data set [4], the result was inactive.
